These results are taken from ChEMBL document CHEMBL4002588, “2,4-Disubstituted quinazolines as amyloid-β aggregation inhibitors with dual cholinesterase inhibition and antioxidant properties: Development and structure-activity relationship (SAR) studies” (Eur J Med Chem, 2017).

The target in test [1] is T1, Amyloid-beta precursor protein (Homo sapiens, UniProt P05067). The test can be described thus: Inhibition of HFIP-induced human recombinant amyloid beta (1 to 40 residues) aggregation expressed in Escherichia coli at 25 uM measured over 24 hrs by ThT-based fluorescence spectroscopic method relative to control.
T1 sequence (P05067 whole entry, the tested form may be a part): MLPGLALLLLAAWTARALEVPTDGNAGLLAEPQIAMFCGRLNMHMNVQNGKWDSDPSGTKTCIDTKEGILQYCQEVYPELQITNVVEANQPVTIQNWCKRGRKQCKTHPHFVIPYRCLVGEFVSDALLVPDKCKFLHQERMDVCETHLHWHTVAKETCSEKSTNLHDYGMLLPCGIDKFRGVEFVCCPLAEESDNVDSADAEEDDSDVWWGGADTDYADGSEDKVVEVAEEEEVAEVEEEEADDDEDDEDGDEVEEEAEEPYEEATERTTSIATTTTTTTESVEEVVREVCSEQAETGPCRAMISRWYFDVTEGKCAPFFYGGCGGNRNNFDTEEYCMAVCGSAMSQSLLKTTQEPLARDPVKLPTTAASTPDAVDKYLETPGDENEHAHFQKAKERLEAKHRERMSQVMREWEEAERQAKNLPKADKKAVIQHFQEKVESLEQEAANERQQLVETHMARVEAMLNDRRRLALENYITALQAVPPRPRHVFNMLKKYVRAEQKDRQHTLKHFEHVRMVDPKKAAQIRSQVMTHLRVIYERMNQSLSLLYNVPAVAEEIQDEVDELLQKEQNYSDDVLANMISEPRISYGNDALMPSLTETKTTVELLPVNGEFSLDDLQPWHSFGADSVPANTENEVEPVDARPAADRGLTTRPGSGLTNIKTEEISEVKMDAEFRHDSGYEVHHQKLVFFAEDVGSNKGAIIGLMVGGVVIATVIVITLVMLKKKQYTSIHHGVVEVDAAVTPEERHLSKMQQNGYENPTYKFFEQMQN
Test [2] concerns the target T1, Amyloid-beta precursor protein. The test can be described thus: Inhibition of HFIP-induced human recombinant amyloid beta (1 to 42 residues) aggregation expressed in Escherichia coli at 25 uM measured over 24 hrs by ThT-based fluorescence spectroscopic method relative to control.
Test [3] has the same target. The test can be described thus: Inhibition of HFIP-induced human recombinant amyloid beta (1 to 42 residues) aggregation expressed in Escherichia coli assessed as reduction in amyloid beta fibril load measured after 24 hrs by ThT fluorescence assay.
Test [4] has the same target. The test can be described thus: Inhibition of HFIP-induced human recombinant amyloid beta (1 to 42 residues) aggregation expressed in Escherichia coli assessed as reduction in amyloid beta fibril load at 25 uM after 24 hrs by transmission electron microscopic method.
The target in a further test is Cholinesterase (Homo sapiens, UniProt P06276).
Cholinesterase, sequence (P06276 whole entry): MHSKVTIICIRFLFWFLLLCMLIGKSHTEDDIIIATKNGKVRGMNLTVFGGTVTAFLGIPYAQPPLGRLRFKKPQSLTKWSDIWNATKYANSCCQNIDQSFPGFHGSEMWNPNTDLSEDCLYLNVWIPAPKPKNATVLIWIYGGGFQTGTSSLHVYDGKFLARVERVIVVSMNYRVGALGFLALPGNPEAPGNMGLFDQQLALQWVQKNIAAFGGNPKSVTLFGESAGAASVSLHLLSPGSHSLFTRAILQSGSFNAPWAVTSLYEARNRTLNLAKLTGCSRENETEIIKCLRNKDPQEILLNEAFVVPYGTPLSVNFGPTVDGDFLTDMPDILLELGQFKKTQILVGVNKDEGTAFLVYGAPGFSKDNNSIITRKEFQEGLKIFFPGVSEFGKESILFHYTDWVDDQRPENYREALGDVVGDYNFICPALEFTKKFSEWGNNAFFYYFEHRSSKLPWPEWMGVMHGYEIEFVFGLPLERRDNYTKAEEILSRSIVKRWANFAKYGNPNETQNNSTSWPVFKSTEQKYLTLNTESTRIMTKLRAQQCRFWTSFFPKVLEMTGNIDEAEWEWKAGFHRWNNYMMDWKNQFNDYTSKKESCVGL
In a further test the target is Acetylcholinesterase (Homo sapiens, UniProt P22303).
Acetylcholinesterase, sequence (P22303 whole entry): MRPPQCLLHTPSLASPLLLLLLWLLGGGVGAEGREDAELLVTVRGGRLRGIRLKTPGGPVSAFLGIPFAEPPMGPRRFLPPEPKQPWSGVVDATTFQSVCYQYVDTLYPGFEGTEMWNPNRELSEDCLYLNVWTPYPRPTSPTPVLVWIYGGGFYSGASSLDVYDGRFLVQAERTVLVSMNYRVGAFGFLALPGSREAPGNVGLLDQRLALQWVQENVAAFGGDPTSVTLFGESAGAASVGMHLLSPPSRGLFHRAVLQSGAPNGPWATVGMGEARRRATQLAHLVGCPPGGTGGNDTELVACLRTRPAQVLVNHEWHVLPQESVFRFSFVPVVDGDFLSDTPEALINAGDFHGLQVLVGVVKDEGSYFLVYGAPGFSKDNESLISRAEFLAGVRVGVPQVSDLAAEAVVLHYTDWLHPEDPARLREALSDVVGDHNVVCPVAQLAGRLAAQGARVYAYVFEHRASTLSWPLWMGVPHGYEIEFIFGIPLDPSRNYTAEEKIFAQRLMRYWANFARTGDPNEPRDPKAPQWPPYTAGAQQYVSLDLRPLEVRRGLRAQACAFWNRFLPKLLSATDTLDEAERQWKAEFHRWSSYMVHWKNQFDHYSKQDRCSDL
Test [5] addresses T1, Amyloid-beta precursor protein.
Description: Inhibition of HFIP-induced human recombinant amyloid beta (1 to 40 residues) aggregation expressed in Escherichia coli measured over 24 hrs by ThT-based fluorescence spectroscopic method
Test [6] has the same target. The test is described as follows: Inhibition of HFIP-induced human recombinant amyloid beta (1 to 40 residues) aggregation expressed in Escherichia coli assessed as reduction in amyloid beta fibril load measured after 24 hrs by ThT fluorescence assay.
The target is the same in test [7]. The test can be described thus: Inhibition of HFIP-induced human recombinant amyloid beta (1 to 40 residues) aggregation expressed in Escherichia coli assessed as reduction in amyloid beta fibril load at 25 uM after 24 hrs by transmission electron microscopic method.
The nature of test [8]: Antioxidant activity assessed as DPPH radical scavenging activity at 50 uM relative to control. The test is classed as functional. A general note: Loss of DPPH colour is used to gauge radical scavenging.
For test [9], the target named is T1, Amyloid-beta precursor protein. The test can be described thus: Potency index, ratio of curcumin IC50 to test compound IC50 for HFIP-induced human recombinant amyloid beta (1 to 40 residues) aggregation.

pIC50: −log10 of the molar value. Activity calls are given as the source filed them. The rule behind the calls is not given here.

Description for Acetylcholinesterase: Inhibition of human AChE using acetylthiocholine iodide as substrate preincubated for 5 mins followed by substrate addition measured for 60 to 300 secs by Ellman's method

One may read the inhibition as the percentage by which the read-out fell short of the control. The pIC50 is the negative decadic logarithm of the IC50, by convention in mol/L. A high value points to a low IC50. Take `CNc1nc(NCCc2ccc(OC)c(OC)c2)c2ccccc2n1`: the inhibition is greater than 50% in test [1], 23.1% in test [2] and “Dose-dependent effect” in test [3]. For the same compound, the inhibition result in test [4] was “Active”. Moreover, the pIC50 is 5.35 at Cholinesterase, 5.07 against Acetylcholinesterase and 5.18 in test [5].
Regarding `NC(=O)Cc1nc(NCCc2ccccc2)c2ccccc2n1`, the pIC50 is 5.46 against Cholinesterase and 5.14 on Acetylcholinesterase.
The corresponding values for `CNc1nc(NCc2ccc(OC)c(OC)c2)c2ccccc2n1` are 4.52 and 5.14.
Consider `CNc1nc(NCc2ccccc2)c2ccccc2n1`, for which the pIC50 is 4.73 against Cholinesterase and 5.10 against Acetylcholinesterase.
For `COc1ccc(CNc2nc(N)nc3ccccc23)cc1OC`, the inhibition was greater than 50% in [1] and 34% in [2]. Besides, the pIC50 in [5] was 5.08.
Turning to `COc1ccc(CNc2nc(NC(C)C)nc3ccccc23)cc1OC`, the pIC50 against Cholinesterase was 4.53; against Acetylcholinesterase it was 5.17.
Turning to `COc1ccc(CCNc2nc(NC3CC3)nc3ccccc23)cc1OC`, the inhibition is greater than 50% in [1] and 25% in test [2]. The figures for the pIC50 (against Cholinesterase; at Acetylcholinesterase; in test [5]) were 5.25, 5.14 and 5.31, respectively.
The corresponding values for `c1ccc(CNc2nc(NC3CC3)nc3ccccc23)cc1` are greater than 50%, 31%, 4.66, 5.18 and 5.24.
For the compound `Clc1nc(NCCc2ccccc2)c2ccccc2n1`, the inhibition in test [1] was greater than 50%; in test [2] it was 36%. The pIC50 in test [5] is 5.30.
As for `Nc1nc(NCc2ccccc2)c2ccccc2n1`, the inhibition is greater than 50% in test [1] and less than 10% in [2].
For `CCCNc1nc(NCCc2ccccc2)c2ccccc2n1`, the inhibition is greater than 50% in test [1] and 33% in test [2]. Moreover, the pIC50 at Cholinesterase is 5.30; at Acetylcholinesterase, 5.14; in test [5], 5.36.
Consider `NC(=O)Cc1nc(NCc2ccccc2)c2ccccc2n1`, for which the pIC50 against Cholinesterase was less than 4.30; against Acetylcholinesterase, 5.14.
In the case of `COc1ccc(CNc2nc(NC3CC3)nc3ccccc23)cc1OC`, the inhibition in test [1] was greater than 50%; in [2], 20%. Also, the pIC50 is 4.53 at Cholinesterase, 5.14 at Acetylcholinesterase and 5.08 in test [5].
With `COc1ccc(CCNc2nc(N)nc3ccccc23)cc1OC`, the inhibition is greater than 50% in [1] and 45% in test [2]. Also, the pIC50 in test [5] was 5.57.
For the compound `CCNc1nc(NCCc2ccccc2)c2ccccc2n1`, the inhibition was greater than 50% in test [1], 47% in test [2] and “Dose-dependent effect” in [6]. In addition, the inhibition entry in [7] is “Active”. Further, the negative logarithm of the IC50 (pIC50) against Cholinesterase was 5.49; against Acetylcholinesterase it was 5.12; in test [5], 5.85.
In the case of `COc1ccc(CNc2nc(NC(C)=O)nc3ccccc23)cc1OC`, the inhibition is greater than 50% in [1] and less than 10% in test [2]. Also, the pIC50 on Cholinesterase is less than 4.30; against Acetylcholinesterase, 5.07; in [5] it was 5.51.
For `CC(=O)Nc1nc(NCc2ccccc2)c2ccccc2n1`, the inhibition in test [1] was greater than 50%; in test [2] it was 31%. The values for the pIC50 (against Cholinesterase; against Acetylcholinesterase; in test [5]) were less than 4.30, 5.12 and 5.72, respectively.
The corresponding values for `CCCNc1nc(NCCc2ccc(OC)c(OC)c2)c2ccccc2n1` are greater than 50%, 14%, 4.60, 5.15 and 5.37.
In the case of `CCCNc1nc(NCc2ccc(OC)c(OC)c2)c2ccccc2n1`, in [1], the inhibition was greater than 50%. Besides, the inhibition result in test [2] was “inactive”. Moreover, the pIC50 was 4.52 against Cholinesterase, 5.25 at Acetylcholinesterase and 5.77 in test [5].
As for `NC(=O)Nc1nc(NCCc2ccccc2)c2ccccc2n1`, the inhibition was greater than 50% in [1], 46% in test [2] and “Dose-dependent effect” in [6]. The inhibition entry in [7] is “Active”. Moreover, the results for the pIC50 (against Cholinesterase; on Acetylcholinesterase; in [5]) were less than 4.30, 5.10 and 6.00, respectively.
For `COc1ccc(CNc2nc(NC(N)=O)nc3ccccc23)cc1OC`, the inhibition was greater than 50% in [1] and 40% in test [2]. In addition, the figures for the pIC50 (at Cholinesterase; against Acetylcholinesterase; in [5]) were less than 4.30, 5.07 and 5.08, respectively.
As for `COc1ccc(CCNc2nc(O)nc3ccccc23)cc1OC`, the inhibition in test [1] was greater than 50%; in test [2] it was 32%. The Activity in test [8] stood at 33.9%. In test [5], this compound showed a pIC50 of 4.98.
On to `Nc1nc(NCCc2ccccc2)c2ccccc2n1`, for which the inhibition in [1] was greater than 50%; in test [2], 37%.
For the compound `Clc1nc(NCc2ccccc2)c2ccccc2n1`, the inhibition in test [1] was greater than 50%; in [2] it was 22%. The same compound showed a pIC50 in test [5] of 4.78.
For `COc1ccc(CCNc2nc(NC(N)=O)nc3ccccc23)cc1OC`, the inhibition in test [1] was greater than 50%; in test [2], 33%. Further, the pIC50 against Cholinesterase is less than 4.30; at Acetylcholinesterase, 5.06; in test [5], 4.84.
`COc1ccc(CCNc2nc(NC(C)C)nc3ccccc23)cc1OC`: the pIC50 was 5.11 on Cholinesterase and 5.12 against Acetylcholinesterase.
Take `[N-]=[N+]=Nc1nc(NCc2ccccc2)c2ccccc2n1`: the figures for the inhibition in [1] and in [2] were greater than 50% and 37%, respectively. Moreover, the negative-log IC50 (pIC50) in [5] was 5.59.
In the case of `Cc1c(C)c2c(c(C)c1O)CCC(C)(C(=O)O)O2` (stereo not given), in test [8], the Activity is 99.6%.
Same read-out and setting: then `Oc1ccc(/C=C/c2cc(O)cc(O)c2)cc1`, with 41.9%.
As to `COc1ccc(CNc2nc(CC(N)=O)nc3ccccc23)cc1OC`, the pIC50 against Cholinesterase was less than 4.30; at Acetylcholinesterase, 5.13.
On to `CNc1nc(NCCc2ccccc2)c2ccccc2n1`, for which the inhibition in test [1] is greater than 50%; in test [2] it was 40%. For the same compound, the negative-log IC50 (pIC50) against Cholinesterase is 5.30; against Acetylcholinesterase, 5.06; in [5], 5.70.
On to `CCNc1nc(NCc2ccc(OC)c(OC)c2)c2ccccc2n1`, for which the pIC50 against Cholinesterase was 4.60; at Acetylcholinesterase, 5.20.
As to `CCNc1nc(NCCc2ccc(OC)c(OC)c2)c2ccccc2n1`, the inhibition in test [1] was greater than 50%; in test [2] it was 41%. Further, the negative-log IC50 (pIC50) at Cholinesterase was 4.85; against Acetylcholinesterase, 5.12; in [5] it was 5.54.
The corresponding values for `CCCNc1nc(NCc2ccccc2)c2ccccc2n1` are greater than 50%, 26%, 4.84, 5.11 and 5.30.
For `NC(=O)Nc1nc(NCc2ccccc2)c2ccccc2n1` the same measures were greater than 50%, 48%, less than 4.30, 5.08 and 4.88.
Consider `COc1ccc(CNc2nc(N=[N+]=[N-])nc3ccccc23)cc1OC`, for which the inhibition is greater than 50% in test [1] and less than 10% in test [2]. The compound also showed a pIC50 in test [5] of 5.14.
For the compound `COc1ccc(CNc2nc(NC3CCN(Cc4ccccc4)CC3)nc3ccccc23)cc1OC`, the inhibition in test [1] was greater than 50%; in test [2], 27%. Besides, the Ratio IC50 in test [9] is 1.3. The compound also showed a pIC50 in test [5] of 5.64.
Regarding `COc1ccc(CCNc2nc(CC(N)=O)nc3ccccc23)cc1OC`, the figures for the pIC50 against Cholinesterase and against Acetylcholinesterase were less than 4.30 and 4.90, respectively.
For the compound `CCNc1nc(NCc2ccccc2)c2ccccc2n1`, the inhibition in test [1] is greater than 50%; in test [2], 24%. The figures for the pIC50 (at Cholinesterase; at Acetylcholinesterase; in [5]) were 4.82, 5.12 and 5.15, respectively.
For the compound `c1ccc(CCNc2ncnc3ccccc23)cc1`, the inhibition is greater than 50% in test [1] and 32% in test [2]. Besides, the pIC50 in test [5] was 4.92.
For `COc1ccc(CCNc2nc(NC(C)=O)nc3ccccc23)cc1OC`, the pIC50 was less than 4.30 against Cholinesterase and 5.13 at Acetylcholinesterase.
With `COc1ccc(CCNc2ncnc3ccccc23)cc1OC`, the inhibition in [1] was greater than 50%; in test [2], 36%. Besides, the pIC50 in test [5] is 4.92.
As to `CC(C)Nc1nc(NCc2ccccc2)c2ccccc2n1`, the inhibition in test [1] was greater than 50%; in test [2], 13%. Further, the values for the pIC50 (on Cholinesterase; at Acetylcholinesterase; in test [5]) were 4.93, 5.19 and 5.36, respectively.
Regarding `Oc1nc(NCCc2ccccc2)c2ccccc2n1`, in [1], the inhibition is greater than 50%. The inhibition result in test [2] was “inactive”. For the same compound, the Activity in [8] worked out at 51.5%. This compound showed a pIC50 in test [5] of 4.95.
Turning to `CC(=O)Nc1nc(NCCc2ccccc2)c2ccccc2n1`, the results for the pIC50 at Cholinesterase and against Acetylcholinesterase were less than 4.30 and 5.15, respectively.
